This note sets out measurements from the NIST ThermoML archive (doi:10.1016/j.jct.2014.01.007).

The structures appear in SMILES notation. Numbers after ± are expanded uncertainties.

Data set [1] is described as follows: molar enthalpy of vaporization or sublimation. The note with it: 298.15 K; Liquid; Static calorimetry.
The conditions of data set [2]: for mass density: 101.33 kPa; for Triple point temperature: DTA.
The nature of data set [3]: Molar enthalpy of transition or fusion. The note with it: DSC.

One may read the mass density as the mass of a sample divided by its volume.

In the case of `CN(C)C(=N)N(C)C` [1,1,3,3-tetramethylguanidine], the molar enthalpy in data set [1] was found to be 11.9 ± 0.359 kcal/mol. In addition, the mass density in data set [2] (288.15 K, Liquid, Vibrating tube method) is recorded as 921.517 ± 0.12 kg/m3; in data set [2] (293.15 K, Liquid, Vibrating tube method) it was 917.012 ± 0.12 kg/m3; in data set [2] (298.14 K, Liquid, Vibrating tube method), 912.5 ± 0.12 kg/m3; in data set [2] (303.15 K, Liquid, Vibrating tube method) it was 907.982 ± 0.12 kg/m3; in data set [2] (308.15 K, Liquid, Vibrating tube method), 903.458 ± 0.12 kg/m3.
Take `CN(C)C(N)=[N+](C)C.O=[N+]([O-])[O-]` [tetramethylguanidinium nitrate]: the “Molar enthalpy of transition or fusion” value in data set [3] (Crystal 1) was 4.74 ± 0.122 kcal/mol; in data set [3] (Crystal 2), 0.159 ± 0.0335 kcal/mol. The mass density in data set [2] (167 K, Crystal 2, X-ray diffraction) is on record as 1295 ± 7 kg/m3; in data set [2] (251 K, Crystal 1, X-ray diffraction) it was 1284 ± 7 kg/m3. Moreover, the Triple point temperature in data set [2] (Crystal 1) worked out at 365.9 ± 0.5 K; in data set [2] (Crystal 2), 221.4 ± 1.7 K.
